These results are taken from PubChem BioAssay AID1896 (NMMLSC, 2009).

Active and inactive are the calls of the source. The rule behind the calls is not given here.

For the assay, the target named is Mitogen-activated protein kinase kinase kinase 3 (Homo sapiens) (UniProt Q99759). Description: inhibitors of MEK5 binding to MEKK3, dose response, biochemical, bead multiplex flow cytometry, wildtype (AID 1896). The note with it: bead-based multiplex flow cytometry, MEK5-MEKK3 PB1 binding; for Ki: measured here: Ki from EC50. A general note: Flow cytometry measures light scatter and fluorescence of single cells or particles in a stream.
Sequence of Mitogen-activated protein kinase kinase kinase 3 (Homo sapiens) (Q99759 whole entry, looked up): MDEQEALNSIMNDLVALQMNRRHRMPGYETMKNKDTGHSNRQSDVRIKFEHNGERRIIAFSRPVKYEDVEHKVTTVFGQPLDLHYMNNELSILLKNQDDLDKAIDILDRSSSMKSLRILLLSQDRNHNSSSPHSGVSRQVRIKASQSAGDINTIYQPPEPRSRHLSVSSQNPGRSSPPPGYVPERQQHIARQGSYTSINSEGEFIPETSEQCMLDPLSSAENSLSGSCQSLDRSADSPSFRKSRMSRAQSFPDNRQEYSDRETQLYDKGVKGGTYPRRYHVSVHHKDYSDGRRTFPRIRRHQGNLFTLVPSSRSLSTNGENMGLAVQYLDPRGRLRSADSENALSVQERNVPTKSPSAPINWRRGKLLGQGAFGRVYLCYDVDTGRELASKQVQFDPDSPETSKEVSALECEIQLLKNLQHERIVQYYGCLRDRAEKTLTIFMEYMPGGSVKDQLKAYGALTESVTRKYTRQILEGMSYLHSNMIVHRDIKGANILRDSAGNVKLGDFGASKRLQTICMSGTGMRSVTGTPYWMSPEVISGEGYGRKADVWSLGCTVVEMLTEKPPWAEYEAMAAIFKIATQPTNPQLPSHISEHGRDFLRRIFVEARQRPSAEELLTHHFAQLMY

Turning to `COC(=O)C1=C(C)N(Cc2ccccc2)C(=NCc2cccc(C(F)(F)F)c2)N[C@H]1c1cccc(F)c1`, the EC50 (commonly the concentration giving half of the maximal effect) was > 30 µM (inactive).

As to `CCN(CC)CCOC(=O)c1ccc(N/C=C(/C#N)c2nc(-c3cc4ccccc4oc3=O)cs2)cc1`, the EC50 was 3.81 µM and the Ki (as a rule, the equilibrium dissociation constant of an inhibitor or competing ligand from its target) came out at 3.26 µM.

Take `Brc1ccc(N=C/C=C/C=C/Nc2ccc(Br)cc2)cc1`: the EC50 is 10.6 µM and the Ki was found to be 9.04 µM.

As for `COCCNC(=O)CN(c1cc(Cl)ccc1OC)S(=O)(=O)c1ccc(C)c([N+](=O)[O-])c1`, the EC50 was > 30 µM (inactive).

For `COc1ccc(Cn2c(SCc3ccc(C)cc3)nc3cc(OC)c(OC)cc3c2=N)cc1Cl`, the EC50 is > 30 µM (inactive).

`NC(N)=N/N=C/c1ccc(OCc2ccccc2Cl)cc1`: the EC50 is > 30 µM (inactive).

For the molecule `Cc1ccc(-c2csc(NC(=O)C[n+]3cc(-c4ccc(C)cc4)n4c3CCC4)n2)cc1`, the EC50 is > 30 µM (inactive).

Turning to `CCCCCCOc1ccc(/C(C)=N/NC2=NCCN2)cc1[N+](=O)[O-]`, the EC50 is > 30 µM (inactive).

In the case of `Cc1ccc(-n2cc(CNCCCn3ccnc3C)c(-c3ccc(F)cc3)n2)cc1`, the EC50 is > 30 µM (inactive).

In the case of `COc1cc(CNCCc2c[nH]c3ccccc23)ccc1OCc1ccccc1F`, the EC50 was > 30 µM (inactive).

In the case of `Cc1ccnc(NC(=O)C2(c3cccs3)CCOCC2)c1`, the EC50 is > 30 µM (inactive).

Consider `CCOC(=O)N1CCN(c2c(N3CCN(c4ccccc4F)CC3)c(=O)c2=O)CC1`, for which the EC50 is > 30 µM (inactive).

Take `Nc1cc2nc[nH]c2cc1N`: the EC50 was 7.87 µM and the Ki is 6.73 µM.

As to `CCNc1ccc2noc3c2c1C(=O)c1ccccc1-3`, the EC50 is 4.55 µM and the Ki stood at 3.89 µM.

On to `C#CCOCCOCCOCCNc1nc(N2CCN(C(=O)[C@H](Cc3cc4ccccc4[nH]3)n3cc([C@@H](N)C(C)CC)nn3)CC2)nc(N2CCN(C(=O)[C@H](Cc3cc4ccccc4[nH]3)n3cc([C@@H](N)Cc4ccc(O)cc4)nn3)CC2)n1` (some centres undefined), for which the EC50 was > 30 µM (inactive).

Turning to `Cc1c2cc(O)c(=O)cc-2oc2cc(O)c(O)cc12`, the EC50 was > 30 µM (inactive).

As to `COc1ccccc1N(CN1C(=O)c2ccccc2C1=O)C(=O)c1cccc(C)c1`, the EC50 was > 30 µM (inactive).

For `CCN(CC)CCOC(=O)c1ccc(N/C=C(/C#N)c2nc(-c3ccc(OC)c(OC)c3)cs2)cc1`, the EC50 was 2.52 µM and the Ki turned out to be 2.15 µM.

As to `CCN(CC)CCOc1ccc2c(c1)C(=NNC(=O)c1ccccn1)c1cc(OCCN(CC)CC)ccc1-2`, the EC50 was > 30 µM (inactive).

Turning to `O=C1c2ccccc2-c2onc3ccc(NCc4ccco4)c1c23`, the EC50 is > 30 µM (inactive).

Take `C=CCN1C(=O)/C(=C/c2ccc(-c3ccc(F)cc3)o2)SC1=S`: the EC50 is > 30 µM (inactive).

On to `CCCN1C(=O)/C(=C\C=C2/Sc3ccccc3N2CC)SC1=S`, for which the EC50 is > 30 µM (inactive).

Turning to `COc1ccc2[nH]c3c(C)c4ccncc4c(C)c3c2c1`, the EC50 was > 30 µM (inactive).

As for `CCN(CC)CCOC(=O)c1ccc(N/C=C(/C#N)c2nc(-c3ccc4c(c3)OCO4)cs2)cc1`, the EC50 is > 30 µM (inactive).

On to `C#CCOCCOCCOCCNc1nc(N2CCN(C(=O)[C@H](CCC(=O)O)n3cc(C(N)CO)nn3)CC2)nc(N2CCN(C(=O)[C@H](Cc3cc4ccccc4[nH]3)n3cc(C(N)[C@H](C)CC)nn3)CC2)n1` (some centres undefined), for which the EC50 is > 30 µM (inactive).

On to `CCC(=C/c1sc2ccc3ccccc3c2[n+]1C)/C=C1\Sc2ccc3ccccc3c2N1C`, for which the EC50 is 0.27 µM and the Ki came to 0.23 µM.

Regarding `CN(C)CCCn1c(SCC(=O)Nc2nc(-c3cccc(Br)c3)cs2)nc2ccccc2c1=O`, the EC50 was > 30 µM (inactive).

`COc1ccc(-n2nc3c(N)n[nH]c3cc2=O)cc1`: the EC50 is 1.13 µM and the Ki came out at 0.97 µM.

As for `C#CCOCCOCCOCCNc1nc(N2CCN(C(=O)C([C@@H](C)CC)n3cc(C(N)COC(=O)C(F)(F)F)nn3)CC2)nc(N2CCN(C(=O)[C@H](CCCCN)n3cc(C(N)[C@H](C)CC)nn3)CC2)n1` (some centres undefined), the EC50 is > 30 µM (inactive).

As for `CN1C(=O)/C(=C\c2ccc(-c3ccccc3)o2)SC1=S`, the EC50 was 10.2 µM and the inhibitory constant (Ki) worked out at 8.75 µM.

Consider `CN(C)CCNc1ncnc2c1sc1nc(-c3ccccc3)c3c(c12)CCCC3`, for which the EC50 is > 30 µM (inactive).

As to `CCN(CC)CCNC(=O)c1ccc(NC(=O)c2cn(-c3ccccc3)nc2-c2cccs2)cc1`, the EC50 was > 30 µM (inactive).

Take `CCCCCCCCCCOC(=O)Cn1c(COc2cccc(OC)c2)[n+](C)c2ccccc21`: the EC50 is > 30 µM (inactive).

Turning to `CCCCCCCCCCOC(=O)Cn1c(COc2ccccc2)[n+](C)c2ccccc21`, the EC50 was > 30 µM (inactive).

In the case of `C#CCOCCOCCOCCNc1nc(N2CCN(C(=O)[C@H]([C@@H](C)CC)n3cc([C@@H](N)Cc4ccc(O)cc4)nn3)CC2)nc(N2CCN(C(=O)[C@H](CCCCN)n3cc([C@@H](N)CC(C)C)nn3)CC2)n1`, the EC50 was > 30 µM (inactive).

`CCN(CC)CCOC(=O)c1ccc(NC(=O)c2cn(-c3ccccc3)nc2-c2cccs2)cc1`: the EC50 is > 30 µM (inactive).

With `Cc1ccc(-c2c[n+](CC(=O)Nc3nc(-c4ccc(F)cc4)cs3)c3n2CCC3)cc1`, the EC50 is > 30 µM (inactive).

Regarding `Cc1nc(Nc2cnc(/C=C/c3cc(C(=O)Nc4cccc(C(F)(F)F)c4)ccc3C)cn2)cc(N2CCNCC2)n1`, the EC50 is 25.2 µM and the Ki was found to be 21.5 µM.

As to `CCN(CC)CCOC(=O)c1ccc(N/C=C(/C#N)c2nc(-c3cccc(OC)c3)cs2)cc1`, the EC50 was > 30 µM (inactive).

With `O=[N+]([O-])c1ccc(/C=C/C2=NN(c3ccccc3)C(c3ccco3)C2)o1` (centres undefined), the EC50 is > 30 µM (inactive).
